Experimental data reported in patent publication US7087035B2 (priority 1999, dated 2006).

Conditions: stretched and non-stretched groups; systems removed at 24 and 48 hours
From the text: In one group of 12 hairless guinea pigs the skin of one flank was stretched manually bi-directionally ( ? and ? ) before application of a foam double adhesive ring having a thickness of 0.8 mm ( 1/32 inch) with a 2 cm^2 hole in the middle which would later contain the drug. The bi-directional stretching was estimated to achieve a skin tension of between 0.1 and 1 M Pa. The adhesive ring served to keep the skin under the drug compartment in the stretched configuration. Next, a 2 cm^2 stainless steel microprotrusion array having trapezoidal microprotrusions with microprotrusion lengths of 430 μm and a microprotrusion density of 241 microprotrusions/cm^2 was applied to the skin beneath the drug compartment using an approximately 2 kg/cm^2 normal manual pressure. The microprotrusion array was held for a few seconds and then removed.
A second group of 12 hairless guinea pigs were treated in the same way, except that the skin was not stretched. At 12, 24, and 48 hours after application four systems from each group were removed and residual drug was washed from the skin.

drug flux after 12 hours: no drug flux in either group
SMILES: NCCCC[C@H](N[C@@H](CCc1ccccc1)C(=O)O)C(=O)N1CCC[C@H]1C(=O)O [lisinopril]
